Data set [1] is described as follows: physchem.
For data set [2] the following is noted: octanol/water.
A short description of data set [3]: clinical. The conditions noted are these: human, in vivo, po.
Data set [4] can be described thus: physchem. The conditions noted are these: octanol/water, pH 6.5.
A short description of data set [5]: clinical. Conditions: human, in vivo, po. This is another data set of the same source.
A short description of data set [6]: clinical. Conditions: human, in vivo, po. This is another data set of the same source.
Data set [7] is described as follows: physchem. Conditions: octanol/water.
The conditions of data set [8]: octanol/water. The source holds these as a separate data set.

The results in this text go back to ChEMBL document CHEMBL1133765, “QSAR model for drug human oral bioavailability” (J Med Chem, 2000).

`COc1ccccc1N1CCN(CCCNc2cc(=O)n(C)c(=O)n2C)CC1`: the pKa in data set [1] was 7.1. The “delta logD” value in data set [2] is -0.52. Besides, in data set [3], the bioavailability was 79%. Moreover, the logD in data set [4] stood at 0.9.
On to `OCCN1CCN(CCC=C2c3ccccc3Sc3ccc(C(F)(F)F)cc32)CC1`, for which, in data set [1], the pKa came out at 8.1. Besides, the “delta logD” value in data set [2] was -0.83. In data set [3], this compound displayed a bioavailability of 79%. This compound also had a logD in data set [4] of 2.88.
On the same counts, the results for `CC(C)(C)NC[C@@H](O)COc1ccccc1C1CCCC1` are 9.3, -0.9, 79% and 1.35.
Take `CCCC(=O)Nc1ccc(OCC(O)CNC(C)C)c(C(C)=O)c1` (centres undefined) [ACEBUTOLOL]: in data set [5], the bioavailability amounted to 49%.
On to `CC(=O)Nc1ccc(O)cc1` [ACETAMINOPHEN], for which the “delta logD” value in data set [2] is listed as 0. For the same compound, the bioavailability in data set [3] came to 79%. This compound came in with a logD in data set [4] of 0.51.
As to `CC(C)(C)NCC(O)c1ccc(O)c(CO)c1` (centres undefined) [ALBUTEROL], the bioavailability in data set [5] is 49%. The “delta logD” value in data set [2] was -0.9. For the same compound, the logD in data set [4] was -2.69.
In data set [1], `CC(C)COCC(CN(Cc1ccccc1)c1ccccc1)N1CCCC1` (centres undefined) [BEPRIDIL] came in with a pKa of 9.3. Also, the “delta logD” value in data set [2] is given as -0.9. Also, the bioavailability in data set [3] was found to be 79%. Also, the pH-dependent lipophilicity (logD) in data set [4] came to 1.1.
The like results for `COc1ccc(CCNCC(O)COc2cccc(C)c2)cc1OC` (centres undefined) [BEVANTOLOL] were, in that order, 8.4, -0.87, 79% and 1.11.
`Nc1c(CC(=O)O)cccc1C(=O)c1ccc(Br)cc1` [BROMFENAC] gave a pKa in data set [1] of 4.3. The “delta logD” value in data set [2] turned out to be 0.9. In data set [3], this compound gave a bioavailability of 79%. In data set [4], this compound gave a logD of 1.39.
On the same counts, the results for `Cc1nnc2n1-c1sc(Br)cc1C(c1ccccc1Cl)=NC2` [BROTIZOLAM] are 6.2, -0.14, 79% and 2.63.
On the same counts, the results for `CCc1cccc2cc(C(O)CNC(C)(C)C)oc12` (centres undefined) [BUFURALOL] are 9, -0.89, 79% and 1.
The like results for `CC(C)(C)NCC(O)COc1cccc2c1CCCC2=O` (centres undefined) [BUNOLOL] were, in that order, 9.3, -0.9, 79% and -0.4.
As for `NS(=O)(=O)c1cc(C2(O)NC(=O)c3ccccc32)ccc1Cl` (centres undefined) [CHLORTHALIDONE], the “delta logD” value in data set [2] is 0. The compound also displayed a bioavailability in data set [3] of 79%. In data set [4], the logD was found to be 0.22.
As for `CN/C(=N/CCSCc1nc[nH]c1C)NC#N` [CIMETIDINE], the bioavailability in data set [3] turned out to be 79%. Moreover, the logD in data set [4] was -0.08.
With `Cc1onc(-c2c(Cl)cccc2Cl)c1C(=O)N[C@@H]1C(=O)N2[C@@H]1SC(C)(C)[C@@H]2C(=O)O` [DICLOXACILLIN], the pKa in data set [1] was determined as 2.8. In addition, the “delta logD” value in data set [2] was determined as 0.9. The bioavailability in data set [3] was 79%. The logD in data set [4] is -0.79.
In turn, `COc1ccc([C@@H]2Sc3ccccc3N(CCN(C)C)C(=O)[C@@H]2OC(C)=O)cc1` [DILTIAZEM] showed a bioavailability in data set [5] of 49%. For the same compound, the “delta logD” value in data set [2] is given as -0.75. Moreover, the logD in data set [4] was determined as 1.47.
On to `COc1cc2nc(N3CCN(C(=O)C4COc5ccccc5O4)CC3)nc(N)c2cc1OC` (centres undefined) [DOXAZOSIN], for which, in data set [1], the pKa is 6.5. In addition, the “delta logD” value in data set [2] is -0.25. This compound also yielded a bioavailability in data set [3] of 79%. In data set [4], this compound returned a pH-dependent lipophilicity (logD) of 1.14.
With `CSc1ccc(C(=O)c2[nH]c(=O)[nH]c2C)cc1` [ENOXIMONE], the “delta logD” value in data set [2] amounted to 0. This compound displayed a bioavailability in data set [3] of 79%. Moreover, in data set [4], the logD worked out at 2.32.
`COCCCC/C(=N\OCCN)c1ccc(C(F)(F)F)cc1` [FLUVOXAMINE]: in data set [1], the pKa turned out to be 9.5. Further, the bioavailability in data set [3] came out at 79%.
For `CN(C)CCCN1c2ccccc2CCc2ccccc21` [IMIPRAMINE], in data set [5], the bioavailability was 49%.
In turn, `COc1ccc2c(c1)N(C[C@H](C)CN(C)C)c1ccccc1S2` [LEVOMEPROMAZINE] showed a pKa in data set [1] of 9.2. For the same compound, the “delta logD” value in data set [2] was -0.89. In data set [3], this compound yielded a bioavailability of 79%. The compound also came in with a logD in data set [4] of 1.98.
With `CCOC(=O)C1(c2ccccc2)CCN(C)CC1` [MEPERIDINE], the “delta logD” value in data set [2] is -0.88. The compound further returned a bioavailability in data set [3] of 79%. The compound further registered a logD in data set [4] of 0.25.
In data set [1], `COCC(=O)O[C@]1(CCN(C)CCCc2nc3ccccc3[nH]2)CCc2cc(F)ccc2[C@@H]1C(C)C` [MIBEFRADIL] gave a pKa of 9.3. Besides, the “delta logD” value in data set [2] is reported as -0.9. Moreover, the bioavailability in data set [3] was determined as 79%. Besides, the logD in data set [4] was found to be 1.25.
The like results for `O=C(NCCN1CCOCC1)c1ccc(Cl)cc1` [MOCLOBEMIDE] were, in that order, 6.2, -0.15, 79% and 1.26.
In turn, `CCOc1ccc2ccccc2c1C(=O)N[C@@H]1C(=O)N2[C@@H]1SC(C)(C)[C@@H]2C(=O)O` [NAFCILLIN] had a bioavailability in data set [5] of 49%. For the same compound, in data set [2], the “delta logD” value is given as 0.9. The log distribution coefficient (logD) in data set [4] was -0.84.
On the same counts, the results for `CN1CCC[C@H]1c1cccnc1` [NICOTINE] are 49%, -0.82 and -0.34.
The compound `Cc1cc2c(s1)Nc1ccccc1N=C2N1CCN(C)CC1` [OLANZAPINE] gave a pKa in data set [1] of 8. Moreover, in data set [2], the “delta logD” value is reported as -0.81. This compound also had a bioavailability in data set [3] of 79%. In addition, in data set [4], the logD is -0.02.
Compound `COc1ccc2[nH]c([S+]([O-])Cc3ncc(C)c(OC)c3C)nc2c1` (centres undefined) [OMEPRAZOLE] had a pKa in data set [1] of 5.2. Besides, the “delta logD” value in data set [2] is -0.02. The same compound displayed a bioavailability in data set [3] of 79%. The logD in data set [4] was determined as 2.21.
Compound `Cc1nccn1CC1CCc2c(c3ccccc3n2C)C1=O` (centres undefined) [ONDANSETRON] yielded a pKa in data set [1] of 7.3. Besides, the bioavailability in data set [6] (F) worked out at 79%. The compound also returned a pH-dependent lipophilicity (logD) in data set [7] (pH 6.5, logD) of 1.13. Further, in data set [8], the “delta logD” value is on record as -0.61.
As to `Fc1ccc([C@@H]2CCNC[C@H]2COc2ccc3c(c2)OCO3)cc1` [PAROXETINE], the pKa in data set [1] was found to be 11.2. For the same compound, the “delta logD” value in data set [2] was -0.9. In data set [3], this compound yielded a bioavailability of 79%. Moreover, in data set [4], the pH-dependent lipophilicity (logD) is -1.96.
The compound `CNC[C@H](O)c1cccc(O)c1` [PHENYLEPHRINE] registered a pKa in data set [1] of 9.8. The same compound displayed a bioavailability in data set [6] (F) of 49%. In addition, in data set [7] (pH 6.5, logD), the logD is -3.02. In addition, the “delta logD” value in data set [8] was -0.9.
The like results for `O=C1NC(=O)C(c2ccccc2)(c2ccccc2)N1` [PHENYTOIN] were, in that order, 8, > 80%, 2.47 and 0.1.
`CC(C)NCC(O)COc1cccc2[nH]ccc12` (centres undefined) [PINDOLOL] registered a pKa in data set [1] of 8.8. Further, in data set [2], the “delta logD” value is -0.88. Besides, the bioavailability in data set [3] was 79%.
`COc1cc(NC(C)CCCN)c2ncccc2c1` (centres undefined) [PRIMAQUINE] yielded a pKa in data set [1] of 10.3. The compound further registered a bioavailability in data set [6] (F) of 79%. The logD in data set [7] (pH 6.5, logD) was -2.19. Also, the “delta logD” value in data set [8] was -0.9.
The compound `CN1CCN(CCCN2c3ccccc3Sc3ccc(Cl)cc32)CC1` [PROCHLORPERAZINE] came in with a pKa in data set [1] of 7.5. Besides, the bioavailability in data set [6] (F) is < 20%. In data set [7] (pH 6.5, logD), this compound showed a logD of 2.51. Besides, the “delta logD” value in data set [8] is recorded as -0.69.
In turn, `CC(C)NCC(O)COc1cccc2ccccc12` (centres undefined) [PROPRANOLOL] showed a bioavailability in data set [5] of 49%. Besides, the “delta logD” value in data set [2] is listed as -0.9.
For `CNCCCC1c2ccccc2C=Cc2ccccc21` [PROTRIPTYLINE], the pKa in data set [1] was 8.2. The bioavailability in data set [6] (F) is > 80%. In data set [7] (pH 6.5, logD), the logD was determined as 0.34. Moreover, the “delta logD” value in data set [8] was -0.84.
In data set [1], `CCN1CCC[C@H]1CNC(=O)c1c(O)c(Cl)cc(Cl)c1OC` [RACLOPRIDE] displayed a pKa of 9.2. In data set [3], this compound had a bioavailability of 79%.
On the same counts, the results for `Nc1nc2ccc(OC(F)(F)F)cc2s1` [RILUZOLE] are 6.5 and 79%.
With `Oc1ccc(C(O)C2CCCCN2)cc1O` (centres undefined) [RIMITEROL], the pKa in data set [1] turned out to be 9.9. Further, the bioavailability in data set [6] was < 20%. Moreover, the logD in data set [7] (pH 6.5) is -3.13. In data set [8], the “delta logD” value was -0.9.
Take `CN(C/C=C/C#CC(C)(C)C)Cc1cccc2ccccc12` [TERBINAFINE]: in data set [1], the pKa was determined as 8.5. Also, the bioavailability in data set [6] (F) was determined as 49%. Also, the logD in data set [7] (pH 6.5, logD) turned out to be 3.3. The “delta logD” value in data set [8] is listed as -0.86.
Turning to `CC(C)(C)NC[C@H](O)COc1nsnc1N1CCOCC1` [TIMOLOL], the pKa in data set [1] is 9.3. Also, the “delta logD” value in data set [2] is listed as -0.9. This compound also yielded a bioavailability in data set [3] of 79%. The logD in data set [4] is -0.99.
The compound `COc1cccc(C2(O)CCCCC2CN(C)C)c1` (centres undefined) [TRAMADOL] had a pKa in data set [1] of 9.4. In addition, the “delta logD” value in data set [2] is -0.9. The bioavailability in data set [3] is 79%. The compound further returned a logD in data set [4] of 0.85.
`O=c1n(CCCN2CCN(c3cccc(Cl)c3)CC2)nc2ccccn12` [TRAZODONE] registered a pKa in data set [1] of 6.7. Moreover, the bioavailability in data set [6] (F) was > 80%. Also, the logD in data set [7] (pH 6.5, logD) turned out to be 1.47. Further, in data set [8], the “delta logD” value is recorded as -0.33.
For the compound `C[C@H](CS)C(=O)N1C[C@@H](Sc2ccccc2)C[C@H]1C(=O)O` [ZOFENOPRILAT], in data set [1], the pKa came out at 3.7. Moreover, the “delta logD” value in data set [2] is listed as 0.9. In data set [3], this compound yielded a bioavailability of 79%. The log distribution coefficient (logD) in data set [4] was -0.64.
On the same counts, the results for `OCCN1CCN(CC/C=C2/c3ccccc3Sc3ccc(Cl)cc32)CC1` [ZUCLOPENTHIXOL] are 8.1, -0.83, 79% and 2.71.
